Experimental findings from patent publication US20090029992A1, “SUBSTITUTED PYRAZOLE COMPOUNDS” (priority 2007, published 2009) are described below.

Structures are written as SMILES. pIC50: −log10 of the molar value.

The target in one assay is T1, recombinant Aurora A (Homo sapiens, UniProt O14965).
T1 construct: purchased Upstate, Lake Placid, N.Y
T1 sequence (O14965 1-403): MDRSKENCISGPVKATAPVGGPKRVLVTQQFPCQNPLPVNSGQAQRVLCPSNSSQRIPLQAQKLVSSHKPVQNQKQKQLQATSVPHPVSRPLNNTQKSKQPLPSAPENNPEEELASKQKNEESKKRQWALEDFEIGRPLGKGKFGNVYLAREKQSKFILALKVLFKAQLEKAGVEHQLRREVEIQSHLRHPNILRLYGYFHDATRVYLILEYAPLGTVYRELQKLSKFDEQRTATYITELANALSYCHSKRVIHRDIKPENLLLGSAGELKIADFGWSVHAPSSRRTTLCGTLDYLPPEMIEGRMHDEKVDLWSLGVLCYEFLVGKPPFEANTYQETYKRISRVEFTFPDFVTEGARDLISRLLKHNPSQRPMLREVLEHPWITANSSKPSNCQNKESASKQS
Nature of the assay: Aurora A (Aurora 2) inhibition assay, Z'-Lyte kinase assay. In kind it is biochemical. To be noted: ATP 10 μM, 1 h. As to the method:
Compounds were tested for their potency against recombinant Aurora A (Upstate, Lake Placid, N.Y.) using the PanVera Z′-Lyte kinase assay kit—Ser/Thr 1 peptide (Invitrogen, Carlsbad, Calif.). Assays were carried out in kinase assay buffer (50 mM HEPES, pH 7.5, 10 mM MgCl2, 5 mM EGTA, 0.05% Brij-35, 2 mM DTT). Test compounds were initially dissolved in DMSO at 100× the highest tested concentration, then serially diluted to 4× test concentrations in kinase assay buffer. Next, Aurora A (final concentration 200-500 ng/mL), Z′-Lyte Ser/Thr 1 peptide (final concentration 2 μM) and ATP (final concentration 10 μM) were added according to the manufacturer's instructions. Assays were carried out in half-area 96-well white polystyrene assay plates (Corning, Corning, N.Y.) in a final volume of 20 μl. The reaction was allowed to proceed for 1 h at room temperature in the dark, at which point the development reagent and stop reagent were added according to the manufacturer's instructions. Coumarin (Ex. 400 nm, Em. 465 nm) and fluorescein (Ex. 400 nm, Em. 565 nm) fluorescence values were measured on a SpectraFluor Plus plate reader (Tecan, Durham, N.C.). The emission ratio (coumarin/fluorescein) was determined and used to calculate the percent phosphorylation for each well. Wells containing substrate but no kinase and wells containing a phosphopeptide control were used to set 0% and 100% phosphorylation values, respectively. Typically 20-40% of the substrate was phosphorylated in wells without inhibitor. Dose-response curves of relative Aurora A activity vs. inhibitor concentration were plotted with Grafit (Erithacus Software, Horley, Surrey, UK).

For assay [1], the target named is T2, N-terminal His-tagged human Src (Homo sapiens, UniProt P12931).
T2 construct: His (N); purchased Upstate USA Inc, 706 Forest Street, Charlottesville, Va
T2 sequence (P12931 whole entry): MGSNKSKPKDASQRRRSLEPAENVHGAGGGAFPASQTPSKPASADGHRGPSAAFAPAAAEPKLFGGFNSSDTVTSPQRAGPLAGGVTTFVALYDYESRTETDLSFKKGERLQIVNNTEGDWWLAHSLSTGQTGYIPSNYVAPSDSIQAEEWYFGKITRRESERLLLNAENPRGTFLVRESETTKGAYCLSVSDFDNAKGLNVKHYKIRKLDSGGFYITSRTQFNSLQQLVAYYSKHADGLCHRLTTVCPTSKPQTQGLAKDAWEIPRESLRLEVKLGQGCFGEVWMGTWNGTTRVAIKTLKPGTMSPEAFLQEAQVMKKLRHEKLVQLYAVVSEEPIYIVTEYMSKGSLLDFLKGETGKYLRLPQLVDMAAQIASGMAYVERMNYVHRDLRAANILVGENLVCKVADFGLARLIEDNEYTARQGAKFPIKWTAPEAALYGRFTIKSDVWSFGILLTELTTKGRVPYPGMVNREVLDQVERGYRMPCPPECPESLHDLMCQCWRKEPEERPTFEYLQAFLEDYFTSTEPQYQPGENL
Description: Src kinase inhibition assay (33P-ATP filter assay). In kind it is biochemical.

[2] abbreviates: group with IC50 greater than 100 nM.

Broadly, the pIC50 is −log10 of the IC50, conventionally taken in molar units. Turning to `Cc1cc(Nc2cc(N(C)CCN(C)C)nc(-c3cc4ccccc4n3C)n2)n[nH]1` [Compound 4, N^4-(2-(dimethylamino)ethyl)-N^4-methyl-2-(1-methyl-1H-indol-2-yl)-N^6-(5-methyl-1H-pyrazol-3-yl)pyrimidine-4,6-diamine], the results for the pIC50 (at recombinant Aurora A (setting [2]); in assay [1] (40 minutes at room temperature)) were not below 6.00 and not below 7.00, respectively.
Take `Cc1cc(Nc2cc(NC3CCOCC3)nc(-c3cccc4ccoc34)n2)n[nH]1` [Example 204, 2-(benzofuran-7-yl)-N^4-(5-methyl-1H-pyrazol-3-yl)-N^6-(tetrahydro-2H-pyran-4-yl)pyrimidine-4,6-diamine]: the pIC50 (on recombinant Aurora A (setting [2]); in assay [1] (setting [2])) was not below 6.00 in each case.
Consider `Cc1cc(Nc2cc(NC3CCOCC3)nc(-c3cc4cc(NS(=O)(=O)C5CC5)ccc4o3)n2)n[nH]1` [Example 156, N-(2-(4-(5-methyl-1H-pyrazol-3-ylamino)-6-(tetrahydro-2H-pyran-4-ylamino)pyrimidin-2-yl)benzofuran-5-yl)cyclopropanesulfonamide], for which the negative-log IC50 (pIC50) (on recombinant Aurora A; in assay [1] (40 minutes at room temperature)) was not below 7.00 in each case.
On to `Cc1cc(Nc2cc(N3CCN(C)CC3)nc(-c3cccc4ccccc34)n2)n[nH]1` [Example 134, N-(5-methyl-1H-pyrazol-3-yl)-6-(4-methylpiperazin-1-yl)-2-(naphthalen-1-yl)pyrimidin-4-amine], for which the negative logarithm of the IC50 (pIC50) (on recombinant Aurora A; in assay [1] (40 minutes at room temperature)) was not below 7.00 throughout.
As to `Cc1cc(Nc2cc(N3CCN(C)CC3)nc(-c3ccccc3Cl)n2)n[nH]1` [Compound 37, 2-(2-chlorophenyl)-N-(5-methyl-1H-pyrazol-3-yl)-6-(4-methylpiperazin-1-yl)pyrimidin-4-amine], the negative-log IC50 (pIC50) is not below 6.00 on recombinant Aurora A (setting [2]) and not below 7.00 in assay [1] (40 minutes at room temperature).
Consider `Cc1cc(Nc2cc(N3CCN(C)CC3)nc(-c3ccc(C(C)(C)C)cc3)n2)n[nH]1` [Compound 82, 2-(4-tert-butylphenyl)-N-(5-methyl-1H-pyrazol-3-yl)-6-(4-methylpiperazin-1-yl)pyrimidin-4-amine], for which the negative-log IC50 (pIC50) (at recombinant Aurora A; in assay [1] (40 minutes at room temperature)) was not below 7.00 in each case.
On to `Cc1cc(Nc2cc(N3CCN(C)CC3)nc(-c3ccc(N(C)C)cc3)n2)n[nH]1` [Compound 85, 2-(4-(dimethylamino)prenyl)-N-(b-methyl-1H-pyrazol-3-yl)-6-(4-methylpiperazin-1-yl)pyrimidin-4-amine], for which the pIC50 (at recombinant Aurora A; in assay [1] (40 minutes at room temperature)) was not below 7.00 throughout.
In the case of `CCc1ccccc1-c1nc(Nc2cc(C)[nH]n2)cc(NC2CCOCC2)n1` [Example 174, 2-(2-ethylphenyl)-N^4-(5-methyl-1H-pyrazol-3-yl)-N^6-(tetrahydro-2H-pyran-4-yl)pyrimidine-4,6-diamine], the pIC50 (at recombinant Aurora A (setting [2]); in assay [1] (setting [2])) was not below 6.00 in each case.
`Cc1ccc(C)c(-c2nc(Nc3cc(C)[nH]n3)cc(N3CCN(C)CC3)n2)c1` [Example 201, 2-(2,5-dimethylphenyl)-N-(5-methyl-1H-pyrazol-3-yl)-6-(4-methylpiperazin-1-yl)pyrimidin-4-amine]: the pIC50 (at recombinant Aurora A (setting [2]); in assay [1] (setting [2])) was not below 6.00 throughout.
As for `Cc1cc(Nc2cc(NC3CCOCC3)nc(-c3ccccc3)n2)n[nH]1` [Compound 12, N^4-(tetrahydro-2H-pyran-4-yl)-N^6-(5-methyl-1H-pyrazol-3-yl)-2-phenylpyrimidine-4,6-diamine], the negative logarithm of the IC50 (pIC50) (on recombinant Aurora A; in assay [1] (40 minutes at room temperature)) was not below 7.00 each time.
As for `Cc1cc(Nc2cc(NCCN3CCN(C)CC3)nc(-c3ccccc3)n2)n[nH]1` [Compound 13, N^4-(5-methyl-1H-pyrazol-3-yl)-N^6-(2-(4-methylpiperazin-1-yl)ethyl)-2-phenylpyrimidine-4,6-diamine], the pIC50 (at recombinant Aurora A (setting [2]); in assay [1] (setting [2])) was not below 6.00 in each case.
`COc1cccc(-c2nc(Nc3cc(C)[nH]n3)cc(NC3CCOCC3)n2)c1` [Compound 29, 2-(3-methoxyphenyl)-N^4-(5-methyl-1H-pyrazol-3-yl)-N^6-(tetrahydro-2H-pyran-4-yl)pyrimidine-4,6-diamine]: the negative logarithm of the IC50 (pIC50) (at recombinant Aurora A; in assay [1] (40 minutes at room temperature)) was not below 7.00 in each case.
As to `Cc1cc(Nc2cc(NC3CCOCC3)nc(-c3cc4ccccc4n3C)n2)n[nH]1` [Compound 7, N^4-(tetrahydro-2H-pyran-4-yl)-2-(1-methyl-1H-indol-2-yl)-N^6-(5-methyl-1H-pyrazol-3-yl)pyrimidine-4,6-diamine], the negative-log IC50 (pIC50) (at recombinant Aurora A (setting [2]); in assay [1] (setting [2])) was not below 6.00 in each case.
With `Cc1cc(Nc2cc(N(C)CCN(C)C)nc(-c3ccccc3)n2)n[nH]1` [Compound 9, N^4-(2-(dimethylamino)ethyl)-N^4-methyl-N^6-(5-methyl-1H-pyrazol-3-yl)-2-phenylpyrimidine-4,6-diamine], the negative logarithm of the IC50 (pIC50) (at recombinant Aurora A (setting [2]); in assay [1] (setting [2])) was not below 6.00 in each case.
In the case of `Cc1cc(Nc2cc(NCCN3CCOCC3)nc(-c3ccccc3)n2)n[nH]1` [Compound 11, N^4-(5-methyl-1H-pyrazol-3-yl)-N^6-(2-morpholinoethyl)-2-phenylpyrimidine-4,6-diamine], the figures for the pIC50 (at recombinant Aurora A; in assay [1] (setting [2])) were not below 7.00 and not below 6.00, respectively.
`COCCN(C)c1cc(Nc2cc(C)[nH]n2)nc(-c2cc(F)ccc2F)n1` [Example 184, 2-(2,5-difluorophenyl)-N^4-(2-methoxyethyl)-N^4-methyl-N^6-(5-methyl-1H-pyrazol-3-yl)pyrimidine-4,6-diamine]: the pIC50 (on recombinant Aurora A (setting [2]); in assay [1] (setting [2])) was not below 6.00 throughout.
Consider `Cc1cc(Nc2cc(N3CCN(C)CC3)nc(-c3ccc(C#N)cc3)n2)n[nH]1` [Example 160, 4-(4-(5-methyl-1H-pyrazol-3-ylamino)-6-(4-methylpiperazin-1-yl)pyrimidin-2-yl)benzonitrile], for which the figures for the pIC50 (on recombinant Aurora A (setting [2]); in assay [1] (40 minutes at room temperature)) were not below 6.00 and not below 7.00, respectively.
For the molecule `Cc1cc(Nc2cc(N3CCN(C)CC3)nc(-c3cccc(OCc4ccccc4)c3)n2)n[nH]1` [Example 188, 2-(3-(benzyloxy)phenyl)-N-(5-methyl-1H-pyrazol-3-yl)-6-(4-methylpiperazin-1-yl)pyrimidin-4-amine], the negative-log IC50 (pIC50) was not below 7.00 on recombinant Aurora A and not below 6.00 in assay [1] (setting [2]).
In the case of `Cc1cc(Nc2cc(NC3CCOCC3)nc(-c3ccc(-c4ccccc4)cc3)n2)n[nH]1` [Example 158, 2-(biphenyl-4-yl)-N^4-(5-methyl-1H-pyrazol-3-yl)-N^6-(tetrahydro-2H-pyran-4-yl)pyrimidine-4,6-diamine], the negative logarithm of the IC50 (pIC50) (on recombinant Aurora A (setting [2]); in assay [1] (setting [2])) was not below 6.00 throughout.
As for `Cc1cc(Nc2cc(N3CCC(O)CC3)nc(-c3cc4ccccc4n3C)n2)n[nH]1` [Compound 3, 1-(6-(5-methyl-1H-pyrazol-3-ylamino)-2-(1-methyl-1H-indol-2-yl)pyrimidin-4-yl)piperidin-4-ol], the pIC50 (at recombinant Aurora A; in assay [1] (40 minutes at room temperature)) was not below 7.00 throughout.
Regarding `Cc1cc(Nc2cc(N3CCN(C)CC3)nc(-c3cc(F)ccc3C)n2)n[nH]1` [Example 196, 2-(5-fluoro-2-methylphenyl)-N-(5-methyl-1H-pyrazol-3-yl)-6-(4-methylpiperazin-1-yl)pyrimidin-4-amine], the pIC50 at recombinant Aurora A (setting [2]) is not below 6.00; in assay [1] (40 minutes at room temperature) it was not below 7.00.
`Cc1cc(Nc2cc(NC3CCOCC3)nc(-c3cc(F)ccc3F)n2)n[nH]1` [Example 185, 2-(2,5-difluorophenyl)-N^4-(5-methyl-1H-pyrazol-3-yl)-N^6-(tetrahydro-2H-pyran-4-yl)pyrimidine-4,6-diamine]: the negative-log IC50 (pIC50) was not below 7.00 on recombinant Aurora A and not below 6.00 in assay [1] (setting [2]).
As for `Cc1ccc(-c2nc(Nc3cc(C)[nH]n3)cc(N3CCN(C)CC3)n2)cc1` [Compound 38, N-(5-methyl-1H-pyrazol-3-yl)-6-(4-methylpiperazin-1-yl)-2-p-tolylpyrimidin-4-amine], the pIC50 (on recombinant Aurora A; in assay [1] (40 minutes at room temperature)) was not below 7.00 in each case.
Consider `Cc1cc(Nc2cc(N3CCN(C)CC3)nc(-c3cccc(N(C)C)c3)n2)n[nH]1` [Compound 86, 2-(3-(dimethylamino)phenyl)-N-(5-methyl-1H-pyrazol-3-yl)-b-(4-methylpiperazin-1-yl)pyrimidin-4-amine], for which the pIC50 (on recombinant Aurora A; in assay [1] (40 minutes at room temperature)) was not below 7.00 in each case.
`COCCNc1cc(Nc2cc(C)[nH]n2)nc(-c2ccccc2)n1` [Compound 10, N^4-(2-methoxyethyl)-N^6-(5-methyl-1H-pyrazol-3-yl)-2-phenylpyrimidine-4,6-diamine]: the pIC50 at recombinant Aurora A was not below 7.00.
